US7772180B2, “Hepatitis C virus inhibitors” (Bristol-Myers Squibb Company, priority 2006, dated 2010)
Like-named read-outs stand apart in the source and are kept apart here.

Experiments:
[1] = molecular target: T1, HCV NS3/4A protease complex, BMS strain (UniProt P27958, species not given/STRAIN_BMS); assay: FRET peptide assay to monitor HCV NS3/4A proteolytic activity (BMS strain); format: biochemical, Hepatitis C virus (genotype 1a); details: read-out: HCV Protease (IC50), NS3/4A BMS strain
T1 construct: other: NS3/4A BMS strain; activity range class; numeric values, unit not given; said of H77 and J4L6S; fused on or other part: A three-lysine solubilising tail at the C-terminus of NS4A; A His tag is implied by the pET21b vector and Ni-NTA purification; Both are printed for the H77 and J4L6S constructs and apply to BMS by inference
T1 sequence (P27958 1027-1657, change not shown, one chain of several): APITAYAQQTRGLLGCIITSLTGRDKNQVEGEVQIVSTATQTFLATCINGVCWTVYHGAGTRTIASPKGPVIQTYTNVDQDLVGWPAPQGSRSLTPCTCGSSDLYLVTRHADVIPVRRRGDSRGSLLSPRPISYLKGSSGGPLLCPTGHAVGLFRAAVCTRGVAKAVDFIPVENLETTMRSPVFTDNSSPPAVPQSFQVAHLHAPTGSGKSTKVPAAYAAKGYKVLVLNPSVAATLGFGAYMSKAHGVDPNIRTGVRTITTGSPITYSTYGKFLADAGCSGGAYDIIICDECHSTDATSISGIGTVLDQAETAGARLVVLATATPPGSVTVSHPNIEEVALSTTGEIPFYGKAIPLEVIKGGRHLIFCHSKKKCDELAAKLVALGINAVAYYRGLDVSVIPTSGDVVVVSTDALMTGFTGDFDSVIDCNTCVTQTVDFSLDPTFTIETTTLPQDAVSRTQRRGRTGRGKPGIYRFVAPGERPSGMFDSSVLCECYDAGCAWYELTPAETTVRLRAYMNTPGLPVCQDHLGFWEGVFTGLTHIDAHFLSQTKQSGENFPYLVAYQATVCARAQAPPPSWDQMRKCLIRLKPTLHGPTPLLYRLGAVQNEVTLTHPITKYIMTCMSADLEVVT
Outline: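 Purified recombinant NS3/4A complex from genotype 1a BMS strain, 2-3 nM final, with RET S1 EDANS/DABCYL depsipeptide substrate at 2 μM final in HEPES pH 7.5, NaCl, Triton, glycerol, βME. Cleavage followed in real time by fluorescence. For high-potency compounds: 50 μg/ml BSA added, protease lowered to 300 pM.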

[2] = tested on: HCV replicon (strain 1b) in HUH-7 cells; assay: HCV replicon FRET assay; format: cell-based, Hepatitis C virus; details: Hepatitis C virus, Huh-7, read-out: HCV Pro Replicon (EC50), HCV replicon cell assay

In the case of `C=C[C@@H]1C[C@]1(NC(=O)[C@@H]1C[C@@H](Oc2nccc3cc(OC)ccc23)CN1C(=O)[C@@H](Nc1cc(C)cc(C)n1)C(C)C)C(=O)NS(=O)(=O)C1CC1` [Compound 1A, N-(4,6-dimethyl-2-pyridinyl)-L-valyl-(4R)—N-((1R,2S)-1-((cyclopropylsulfonyl)carbamoyl)-2-vinylcyclopropyl)-4-((6-methoxy-1-isoquinolinyl)oxy)-L-prolinamide], the IC50 ([1]; activity range class) is reported as 0.6 to 20 nM and the EC50 ([2]; activity range class) is reported as 3 to 100 nM.
Molecule `C=C[C@@H]1C[C@]1(NC(=O)[C@@H]1C[C@@H](Oc2nccc3cc(OC)ccc23)CN1C(=O)[C@H](Nc1cc(C)cc(C)n1)C(C)C)C(=O)NS(=O)(=O)C1CC1` [Compound 1B, N-(4,6-dimethyl-2-pyridinyl)-D-valyl-(4R)—N-((1R,2S)-1-((cyclopropylsulfonyl)carbamoyl)-2-vinylcyclopropyl)-4-((6-methoxy-1-isoquinolinyl)oxy)-L-prolinamide] has an IC50 ([1]; numeric values, unit inferred) of 289 nM and an EC50 ([2]; numeric values, unit inferred) of 1640 nM.
`C=C[C@@H]1C[C@]1(NC(=O)[C@@H]1C[C@@H](Oc2nccc3cc(OC)ccc23)CN1C(=O)[C@@H](Nc1nc(OC)nc(OC)n1)C(C)(C)C)C(=O)NS(=O)(=O)C1CC1` [Compound 3, N-(4,6-dimethoxy-1,3,5-triazin-2-yl)-3-methyl-L-valyl-(4R)—N-((1R,2S)-1-((cyclopropylsulfonyl)carbamoyl)-2-vinylcyclopropyl)-4-((6-methoxy-1-isoquinolinyl)oxy)-L-prolinamide] showed an IC50 ([1]; activity range class) of 0.6 to 20 nM and an EC50 ([2]; activity range class) greater than 1000 nM.
With `C=C[C@@H]1C[C@]1(NC(=O)[C@@H]1C[C@@H](Oc2nccc3cc(OC)ccc23)CN1C(=O)[C@@H](Nc1nc(OC)nc(OC)n1)C(C)C)C(=O)NS(=O)(=O)C1CC1` [Compound 4, N-(4,6-dimethoxy-1,3,5-triazin-2-yl)valyl-(4R)—N-((1R,2S)-1-((cyclopropylsulfonyl)carbamoyl)-2-vinylcyclopropyl)-4-((6-methoxy-1-isoquinolinyl)oxy)-L-prolinamide] the IC50 ([1]; activity range class) was 20 to 200 nM and the EC50 ([2]; activity range class) was greater than 1000 nM.
`C=C[C@@H]1C[C@]1(NC(=O)[C@@H]1C[C@@H](Oc2nccc3cc(OC)ccc23)CN1C(=O)[C@H](Nc1cccnc1)C(C)(C)C)C(=O)NS(=O)(=O)C1CC1` [Compound 13B, 3-methyl-N-3-pyridinyl-D-valyl-(4R)—N-((1R,2S)-1-((cyclopropylsulfonyl)carbamoyl)-2-vinylcyclopropyl)-4-((6-methoxy-1-isoquinolinyl)oxy)-L-prolinamide] was tested, and the IC50 ([1]; numeric values, unit inferred) was 1200 nM and the EC50 ([2]; numeric values, unit inferred) was 5740 nM.
`C=C[C@@H]1C[C@]1(NC(=O)[C@@H]1C[C@@H](Oc2nccc3cc(OC)ccc23)CN1C(=O)[C@H](Nc1ccccc1)C(C)(C)C)C(=O)NS(=O)(=O)C1CC1` [Compound 15B, 3-methyl-N-phenyl-D-valyl-(4R)—N-((1R,2S)-1-((cyclopropylsulfonyl)carbamoyl)-2-vinylcyclopropyl)-4-((6-methoxy-1-isoquinolinyl)oxy)-L-prolinamide] was tested, and the IC50 ([1]; numeric values, unit inferred) was 1900 nM and the EC50 ([2]; numeric values, unit inferred) was 3380 nM.
`C=C[C@@H]1C[C@]1(NC(=O)[C@@H]1C[C@@H](Oc2nc(N(C)C)cc3cc(OC)ccc23)CN1C(=O)C(Nc1cc(C)cc(C)n1)C(C)C)C(=O)NS(=O)(=O)C1CC1` (stereo partly drawn) [Compound 17, N-(4,6-dimethyl-2-pyridinyl)valyl-(4R)—N-((1R,2S)-1-((cyclopropylsulfonyl)carbamoyl)-2-vinylcyclopropyl)-4-((3-(dimethylamino)-6-methoxy-1-isoquinolinyl)oxy)-L-prolinamide] gave an IC50 ([1]; activity range class) of 0.6 to 20 nM and an EC50 ([2]; activity range class) of 3 to 100 nM.
`C=C[C@@H]1C[C@]1(NC(=O)[C@@H]1C[C@@H](Oc2nc(OC)cc3cc(OC)ccc23)CN1C(=O)C(Nc1cc(C)cc(C)n1)C(C)C)C(=O)NS(=O)(=O)C1CC1` (stereo partly drawn) [Compound 21, N-(4,6-dimethyl-2-pyridinyl)valyl-(4R)—N-((1R,2S)-1-((cyclopropylsulfonyl)carbamoyl)-2-vinylcyclopropyl)-4-((3,6-dimethoxy-1-isoquinolinyl)oxy)-L-prolinamide] showed an IC50 ([1]; activity range class) of 0.6 to 20 nM and an EC50 ([2]; activity range class) of 3 to 100 nM.
In the case of `C=C[C@@H]1C[C@]1(NC(=O)[C@@H]1C[C@@H](Oc2ncc(OC)c3ccc(Cl)cc23)CN1C(=O)C(Nc1cc(C)c([N+](=O)[O-])cn1)C(C)(C)C)C(=O)NS(=O)(=O)C1CC1` (stereo partly drawn) [Compound 23, 3-methyl-N-(4-methyl-5-nitro-2-pyridinyl)valyl-(4R)-4-((7-chloro-4-methoxy-1-isoquinolinyl)oxy)-N-((1R,2S)-1-((cyclopropylsulfonl)carbamoyl)-2-vinylcyclopropyl)-L-prolinamide], the IC50 ([1]; activity range class) is reported as 0.6 to 20 nM and the EC50 ([2]; activity range class) is reported as 3 to 100 nM.
In the case of `C=C[C@@H]1C[C@]1(NC(=O)[C@@H]1C[C@@H](Oc2ncc(OC)c3ccc(Cl)cc23)CN1C(=O)C(Nc1cncc(C)c1)C(C)(C)C)C(=O)NS(=O)(=O)C1CC1` (stereo partly drawn) [Compound 25, 3-methyl-N-(5-methyl-3-pyridinyl)valyl-(4R)-4-((7-chloro-4-methoxy-1-isoquinolinyl)oxy)-N-((1R,2S)-1-((cyclopropylsulfonyl)carbamoyl)-2-vinylcyclopropyl)-L-prolinamide], the IC50 ([1]; activity range class) is reported as 0.6 to 20 nM and the EC50 ([2]; activity range class) is reported as 3 to 100 nM.
In the case of `C=C[C@@H]1C[C@]1(NC(=O)[C@@H]1C[C@@H](Oc2ncc(OC)c3ccc(Cl)cc23)CN1C(=O)[C@@H](Nc1cncc(Cl)c1)C(C)(C)C)C(=O)NS(=O)(=O)C1CC1` [Compound 33, N-(5-chloro-3-pyridinyl)-3-methylvalyl-(4R)-4-((7-chloro-4-methoxy-1-isoquinolinyl)oxy)-N-((1R,2S)-1-((cyclopropylsulfonyl)carbamoyl)-2-vinylcyclopropyl)-L-prolinamide], the IC50 ([1]; numeric values, unit inferred) is reported as 2 nM and the EC50 ([2]; numeric values, unit inferred) is reported as 8.19 nM.
In the case of `C=C[C@@H]1C[C@]1(NC(=O)[C@@H]1C[C@@H](Oc2nccc3cc(OC)ccc23)CN1C(=O)[C@@H](Nc1nc(CC)cs1)C(C)(C)C)C(=O)NS(=O)(=O)C1CC1` [Compound 35, N-(4-ethyl-1,3-thiazol-2-yl)-3-methyl-L-valyl-(4R)—N-((1R,2S)-1-((cyclopropylsulfonyl)carbamoyl)-2-vinylcyclopropyl)-4-((6-methoxy-1-isoquinolinyl)oxy)-L-prolinamide], the IC50 ([1]; activity range class) is reported as 0.6 to 20 nM and the EC50 ([2]; activity range class) is reported as 3 to 100 nM.
`C=C[C@@H]1C[C@]1(NC(=O)[C@@H]1C[C@@H](Oc2nccc3cc(OC)ccc23)CN1C(=O)[C@@H](NC1=NCCCS1)C(C)(C)C)C(=O)NS(=O)(=O)C1CC1` [Compound 36, N-(5,6-dihydro-4H-1,3-thiazin-2-yl)-3-methyl-L-valyl-(4R)—N-((1R,2S)-1-((cyclopropylsulfonyl)carbamoyl)-2-vinylcyclopropyl)-4-((6-methoxy-1-isoquinolinyl)oxy)-L-prolinamide] was tested, and the IC50 ([1]; numeric values, unit inferred) was 73 nM and the EC50 ([2]; numeric values, unit inferred) was 1420 nM.
In the case of `C=C[C@@H]1C[C@]1(NC(=O)[C@@H]1C[C@@H](Oc2nc(-c3ccc(OC(F)(F)F)cc3)cc3cc(OC)ccc23)CN1C(=O)[C@@H](NC1=NCCCS1)C(C)(C)C)C(=O)NS(=O)(=O)C1CC1` [Compound 37, N-(5,6-dihydro-4H-1,3-thiazin-2-yl)-3-methyl-L-valyl-(4R)—N-((1R,2S)-1-((cyclopropylsulfonyl)carbamoyl)-2-vinylcyclopropyl)-4-((6-methoxy-3-(4-(trifluoromethoxy)phenyl)-1-isoquinolinyl)oxy)-L-prolinamide], the IC50 ([1]; activity range class) is reported as 0.6 to 20 nM and the EC50 ([2]; activity range class) is reported as 3 to 100 nM.
`C=CC1CC1(NC(=O)C1CC(Oc2ncc(OC)c3ccc(Cl)cc23)CN1C(=O)C(Nc1cccc(F)c1)C(C)(C)C)C(=O)NS(=O)(=O)C1CC1` (centres unmarked) [Compound 200B] gave an IC50 ([1]; numeric values, unit inferred) of 160 nM and an EC50 ([2]; numeric values, unit inferred) of 195 nM.
Molecule `C=C[C@@H]1C[C@]1(NC(=O)[C@@H]1C[C@@H](Oc2ncc(OC)c3ccc(Cl)cc23)CN1C(=O)C(Nc1cccc(C(=O)NC)c1)C(C)(C)C)C(=O)NS(=O)(=O)C1CC1` (some centres unmarked) [Compound 202A] has an IC50 ([1]; activity range class) of 0.6 to 20 nM and an EC50 ([2]; activity range class) of 3 to 100 nM.
With `C=C[C@@H]1C[C@]1(NC(=O)[C@@H]1C[C@@H](Oc2ncc(OC)c3ccc(Cl)cc23)CN1C(=O)C(Nc1cccc(C#N)c1)C(C)(C)C)C(=O)NS(=O)(=O)C1CC1` (some centres unmarked) [Compound 203A] the IC50 ([1]; numeric values, unit inferred) was 4 nM and the EC50 ([2]; numeric values, unit inferred) was 1.54 nM.
`C=C[C@@H]1C[C@]1(NC(=O)[C@@H]1C[C@@H](Oc2ncc(OC)c3ccc(Cl)cc23)CN1C(=O)[C@@H](Nc1ccc(S(N)(=O)=O)cc1)C(C)(C)C)C(=O)NS(=O)(=O)C1CC1` [Compound 215A, 3-methyl-N-(4-sulfamoylphenyl)-L-valyl-(4R)-4-((7-chloro-4-methoxy-1-isoquinolinyl)oxy)-N-((1R,2S)-1-((cyclopropylsulfonyl)carbamoyl)-2-vinylcyclopropyl)-L-prolinamide] was tested, and the IC50 ([1]; activity range class) was 0.6 to 20 nM and the EC50 ([2]; activity range class) was 3 to 100 nM.
Work on `C=C[C@@H]1C[C@]1(NC(=O)[C@@H]1C[C@@H](Oc2ncc(OC)c3ccc(Cl)cc23)CN1C(=O)[C@H](Nc1ccc(S(N)(=O)=O)cc1)C(C)(C)C)C(=O)NS(=O)(=O)C1CC1` [Compound 215B, 3-methyl-N-(4-sulfamoylphenyl)-D-valyl-(4R)-4-((7-chloro-4-methoxy-1-isoquinolinyl)oxy)-N-((1R,2S)-1-((cyclopropylsulfonyl)carbamoyl)-2-vinylcyclopropyl)-L-prolinamide] yielded an IC50 ([1]; numeric values, unit inferred) of 830 nM and an EC50 ([2]; numeric values, unit inferred) of 5490 nM.
